Source: the supplement of paper PMC10307832

Key:
Assay in all cases: relative viability (nuclei count vs DMSO), 5 days (fraction); higher = more cells survive
BI-2536 + Pemetrexed = compound: CC[C@@H]1C(=O)N(C)c2cnc(Nc3ccc(C(=O)NC4CCN(C)CC4)cc3OC)nc2N1C1CCCC1 [BI-2536] + Nc1nc2[nH]cc(CCc3ccc(C(=O)N[C@@H](CCC(=O)O)C(=O)O)cc3)c2c(=O)[nH]1 [Pemetrexed] (partner 0.2 µM)
In short: (§1)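 After 5 days of treatment, lung cancer cells in 1536-well plates were fixed and stained in a single step (final 0.05% Triton X-100, 1% formaldehyde, 1 ug/ml Hoechst) and their nuclei counted on 4× images. Treatment had been applied by pin tool the day after seeding as one drug alone or as a fixed anchor-drug dose with five library-drug doses (not always all listed) in √10 steps. Relative viability is the nuclei count of treated wells divided by that of vehicle wells, and values are medians of duplicate plates.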

BI-2536 + Tozasertib = compound: CC[C@@H]1C(=O)N(C)c2cnc(Nc3ccc(C(=O)NC4CCN(C)CC4)cc3OC)nc2N1C1CCCC1 [BI-2536] + Cc1cc(Nc2cc(N3CCN(C)CC3)nc(Sc3ccc(NC(=O)C4CC4)cc3)n2)n[nH]1 [Tozasertib] (partner 0.1 µM)
In short: as §1

[1] = compound: CC1CC(=O)N(C2=CN=C(N=C2N1C3CCCC3)NC4=C(C=C(C=C4)C(=O)NC5CCN(CC5)C)OC)C [NPK76-II-72-1] + Cc1nc(Nc2ncc(C(=O)Nc3c(C)cccc3Cl)s2)cc(N2CCN(CCO)CC2)n1 [Dasatinib] (partner 0.075 µM)
In short: as §1

BI-2536 + Bortezomib = compound: CC[C@@H]1C(=O)N(C)c2cnc(Nc3ccc(C(=O)NC4CCN(C)CC4)cc3OC)nc2N1C1CCCC1 [BI-2536] + CC(C)C[C@H](NC(=O)[C@H](Cc1ccccc1)NC(=O)c1cnccn1)B(O)O [Bortezomib] (partner 0.002 µM)
In short: as §1

Cell Line | relative viability (BI-2536 + Pemetrexed; first compound 0.01 µM) | relative viability (BI-2536 + Pemetrexed; first compound 0.03162 µM) | relative viability (BI-2536 + Pemetrexed; first compound 0.1 µM) | relative viability (BI-2536 + Pemetrexed; first compound 0.3162 µM) | relative viability (BI-2536 + Pemetrexed; first compound 1 µM) | relative viability (BI-2536 + Tozasertib; first compound 0.01 µM) | relative viability (BI-2536 + Tozasertib; first compound 0.03162 µM) | relative viability (BI-2536 + Tozasertib; first compound 0.1 µM) | relative viability (BI-2536 + Tozasertib; first compound 0.3162 µM) | relative viability (BI-2536 + Tozasertib; first compound 1 µM) | relative viability ([1]; first compound 0.01 µM) | relative viability ([1]; first compound 0.03162 µM) | relative viability ([1]; first compound 0.1 µM) | relative viability ([1]; first compound 0.3162 µM) | relative viability ([1]; first compound 1 µM) | relative viability (BI-2536 + Bortezomib; first compound 0.01 µM) | relative viability (BI-2536 + Bortezomib; first compound 0.03162 µM) | relative viability (BI-2536 + Bortezomib; first compound 0.1 µM) | relative viability (BI-2536 + Bortezomib; first compound 0.3162 µM) | relative viability (BI-2536 + Bortezomib; first compound 1 µM)
NCI-H1437 | 0.321 | 0.288 | 0.267 | 0.227 | 0.212 | 0.465 | 0.432 | 0.389 | 0.333 | 0.237 | 0.416 | 0.388 | 0.321 | 0.33 | 0.417 | 0.543 | 0.463 | 0.416 | 0.136 | 0.089
NCI-H1650 | 0.383 | 0.297 | 0.288 | 0.166 | 0.136 | 0.403 | 0.283 | 0.252 | 0.179 | 0.196 | 0.308 | 0.314 | 0.405 | 0.293 | 0.265 | 0.198 | 0.195 | 0.18 | 0.18 | 0.171
NCI-H1651 | 0.613 | 0.583 | 0.511 | 0.139 | 0.0892 | 0.685 | 0.795 | 0.429 | 0.104 | 0.0989 | 0.386 | 0.46 | 0.413 | 0.429 | 0.419 | 0.898 | 0.98 | 0.894 | 0.583 | 0.11
NCI-H1666 | 0.822 | 0.881 | 0.831 | 0.543 | 0.57 | 0.621 | 0.52 | 0.415 | 0.369 | 0.372 | 0.705 | 0.841 | 0.723 | 0.832 | 0.912 | 0.681 | 0.874 | 0.332 | 0.251 | 0.308
NCI-H1734 | 0.39 | 0.36 | 0.279 | 0.211 | 0.188 | 0.251 | 0.271 | 0.26 | 0.253 | 0.26 | 0.513 | 0.493 | 0.455 | 0.437 | 0.509 | 0.84 | 0.82 | 0.226 | 0.154 | 0.156
NCI-H1755 | 0.456 | 0.371 | 0.295 | 0.359 | 0.291 | 0.559 | 0.595 | 0.477 | 0.344 | 0.317 | 0.377 | 0.448 | 0.429 | 0.357 | 0.497 | 0.9 | 0.891 | 0.355 | 0.308 | 0.262
NCI-H1915 | 0.507 | 0.427 | 0.347 | 0.147 | 0.0852 | 0.486 | 0.292 | 0.232 | 0.171 | 0.166 | 0.324 | 0.352 | 0.324 | 0.351 | 0.302 | 1.02 | 0.965 | 0.613 | 0.439 | 0.0752
NCI-H1975 | 0.297 | 0.276 | 0.22 | 0.169 | 0.168 | 0.664 | 0.673 | 0.393 | 0.116 | 0.0975 | 0.336 | 0.402 | 0.359 | 0.439 | 0.382 | 0.318 | 0.248 | 0.243 | 0.144 | 0.117
NCI-H1993 | 0.64 | 0.569 | 0.421 | 0.393 | 0.435 | 0.497 | 0.615 | 0.609 | 0.617 | 0.59 | 0.442 | 0.654 | 0.619 | 0.548 | 0.759 | 1.2 | 1 | 0.536 | 0.696 | 0.646
NCI-H2009 | 1.07 | 1 | 0.674 | 0.223 | 0.274 | 0.769 | 0.667 | 0.459 | 0.321 | 0.23 | 0.297 | 0.342 | 0.301 | 0.287 | 0.317 | 1.02 | 0.916 | 0.413 | 0.156 | 0.108
NCI-H2023 | 0.225 | 0.197 | 0.124 | 0.0926 | 0.0873 | 0.389 | 0.461 | 0.234 | 0.11 | 0.108 | 0.511 | 0.63 | 0.605 | 0.583 | 0.603 | 0.943 | 0.87 | 0.193 | 0.0834 | 0.0889
NCI-H2085 | 0.961 | 1.01 | 0.664 | 0.172 | 0.243 | 0.787 | 0.737 | 0.478 | 0.368 | 0.438 | 0.258 | 0.266 | 0.24 | 0.227 | 0.22 | 1.05 | 1.01 | 0.587 | 0.371 | 0.381
NCI-H2087 | 0.7 | 0.697 | 0.713 | 0.104 | 0.0907 | 0.25 | 0.214 | 0.155 | 0.119 | 0.12 | 0.873 | 0.873 | 0.813 | 0.941 | 0.71 | 0.858 | 0.677 | 0.693 | 0.128 | 0.139
NCI-H2126 | 0.747 | 0.74 | 0.369 | 0.286 | 0.217 | 0.884 | 0.373 | 0.296 | 0.236 | 0.269 | 0.594 | 0.591 | 0.58 | 0.607 | 0.709 | 1.19 | 1.1 | 1.05 | 0.636 | 0.227
NCI-H2228 | 0.382 | 0.385 | 0.131 | 0.194 | 0.14 | 0.285 | 0.195 | 0.187 | 0.139 | 0.11 | 0.367 | 0.547 | 0.495 | 0.566 | 0.619 | 1.13 | 0.911 | 0.16 | 0.198 | 0.187
